Laboratory results from patent publication US9394314B2, “8′-hydroxy-dihydroergotamine compounds and compositions” (priority 2012, dated 2016).

Legend:
human 5-HT1D receptor = biological target: T1, human 5-HT1D receptor (Homo sapiens, UniProt P28221); experiment: Radioligand binding assay (competition and kinetics), CHO-K1 membranes
T1 construct: purchased Euroscreen; host or cells: CHO-K1
Method: (§1) For kinetics of radioligand competitive binding, serial dilutions were performed from master solution in 100% DMSO to obtain intermediate concentrations 200-fold higher than the concentrations to be tested. Each test sample was diluted 100-fold in the assay buffer and dispensed into the test plate.
5-HT1D Radioligand Binding Assay
Assay buffer: 50 mM Tris (pH 7.4), 4 mM CaCl2, 0.1% ascorbic acid
(§2) Washing buffer: 50 mM Tris (pH 7.4)
Membrane: recombinant CHO-K1-5-HT1D membranes thawed on ice and diluted in assay buffer (10 μg/well)
Ligand: 5-HT (Sigma, H-9523)
(§3) Determination of IC50 and Ki constant for each test compound. […] After washing the filters 5 times with 0.5 mL of ice-cold washing buffer, 50 μL of Microscint 20 (Packard) were added to the filters and the plates were incubated 15 min on an orbital shaker and then counted for 1 min/well. […]
(§4) Determination of kon and koff constants for each test compound. Each compound was first assessed in a pilot experiment to evaluate its effect on the kinetic binding of each receptor-radioligand pair. […] After washing the filters 5 times with 0.5 mL of ice-cold washing buffer, 50 μL of Microscint 20 (Packard) were added to the filters and the plates were incubated 15 min on an orbital shaker and then counted for 1 min/well.

human 5-HT1B receptor = biological target: T2, human 5-HT1B receptor (Homo sapiens, UniProt P28222); experiment: as above
T2 construct: purchased Euroscreen; host or cells: CHO-K1
T2 sequence (P28222 whole entry): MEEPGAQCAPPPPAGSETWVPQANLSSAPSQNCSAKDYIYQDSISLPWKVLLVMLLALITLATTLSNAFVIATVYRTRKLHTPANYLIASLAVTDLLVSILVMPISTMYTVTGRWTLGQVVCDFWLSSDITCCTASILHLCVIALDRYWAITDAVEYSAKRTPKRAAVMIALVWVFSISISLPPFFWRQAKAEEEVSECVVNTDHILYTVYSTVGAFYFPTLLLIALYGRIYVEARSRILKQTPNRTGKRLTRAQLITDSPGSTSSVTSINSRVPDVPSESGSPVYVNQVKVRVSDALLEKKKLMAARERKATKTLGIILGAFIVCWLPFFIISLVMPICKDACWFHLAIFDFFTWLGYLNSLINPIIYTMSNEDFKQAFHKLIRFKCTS
Method: as §1
5-HT1B Radioligand Binding Assay
as §2
Ligand: 5-CT (Tocris, 0458)
Determination of IC50 and Ki constant for each test compound. […] The samples were incubated for 60 min (or 4 hours for a second experiment on 5-HT2B receptors) at a temperature optimized for each receptor and then filtered over a filter plate. After washing the filters 5 times with 0.5 mL of ice-cold washing buffer, 50 μL of Microscint 20 (Packard) were added to the filters and the plates were incubated 15 min on an orbital shaker and then counted for 1 min/well. The test compounds were tested in duplicate at the nanomolar concentrations reported below in Table 5.
as §4

human D2L receptor = biological target: T3, human D2L receptor (Homo sapiens, UniProt P14416); experiment: as above
T3 construct: purchased Euroscreen; host or cells: CHO-K1
T3 sequence (P14416 whole entry): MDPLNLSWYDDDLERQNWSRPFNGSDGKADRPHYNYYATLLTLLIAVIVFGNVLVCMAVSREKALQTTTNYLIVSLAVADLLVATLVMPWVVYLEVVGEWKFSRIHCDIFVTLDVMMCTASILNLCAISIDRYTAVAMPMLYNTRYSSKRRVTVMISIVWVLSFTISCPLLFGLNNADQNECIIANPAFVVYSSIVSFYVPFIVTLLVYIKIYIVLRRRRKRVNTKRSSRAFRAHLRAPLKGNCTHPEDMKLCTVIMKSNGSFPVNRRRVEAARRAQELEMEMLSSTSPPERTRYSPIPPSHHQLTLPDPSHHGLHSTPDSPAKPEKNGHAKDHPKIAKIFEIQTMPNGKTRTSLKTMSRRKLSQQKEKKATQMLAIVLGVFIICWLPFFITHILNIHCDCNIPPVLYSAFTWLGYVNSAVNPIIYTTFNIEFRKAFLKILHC
Method: as §1
D2L Radioligand Binding Assay
Assay buffer: 25 mM HEPES (pH 7.4), 5 mM MgCl2, 1 mM CaCl2, BSA protease free 0.5%
Washing buffer: 25 mM HEPES (pH 7.4), 5 mM MgCl2, 1 mM CaCl2
Membrane: recombinant CHO-K1-D2L membranes thawed on ice and diluted in assay buffer (2 μg/well)
Ligand: Risperidone (Tocris Bioscience, 2865) […]
as §3
as §4, with “min/well. […]” for “min/well.”

[1] = cited from earlier work
[2] = subcutaneously, concentration 1.5 mM; cited from earlier work

T1 sequence (P28221 whole entry): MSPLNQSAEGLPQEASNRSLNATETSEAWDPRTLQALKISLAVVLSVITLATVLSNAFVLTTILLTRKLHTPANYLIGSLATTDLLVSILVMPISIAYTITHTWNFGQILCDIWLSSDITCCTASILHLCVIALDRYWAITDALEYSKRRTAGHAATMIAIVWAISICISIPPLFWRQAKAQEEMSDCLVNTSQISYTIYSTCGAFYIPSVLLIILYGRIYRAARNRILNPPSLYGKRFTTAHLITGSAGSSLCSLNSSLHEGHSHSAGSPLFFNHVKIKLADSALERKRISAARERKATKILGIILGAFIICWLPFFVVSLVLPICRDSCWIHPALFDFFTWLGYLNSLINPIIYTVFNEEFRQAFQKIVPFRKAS

Row | SMILES | Avg Koff (human 5-HT1D receptor) [s⁻¹] | Avg Koff (human 5-HT1B receptor) [s⁻¹] | Avg Koff (human D2L receptor) [s⁻¹] | concentration of 8′-OH DHE metabolite relative to parent DHE ([1]; previous studies) [times] | treated patients with nausea [2] [%] | fraction of administered dose extracted in the urine ([1]; IM administered dose) | total DHE metabolites as share of plasma AUC ([1]; nasal administration of DHE)
1 | CN1C[C@H](C(=O)N[C@]2(C)O[C@@]3(O)[C@@H]4CCC(O)N4C(=O)[C@H](Cc4ccccc4)N3C2=O)C[C@@H]2c3cccc4[nH]cc(c34)C[C@H]21 (stereo partly shown) [8′-OH DHE, 8′-Hydroxy-Dihydroergotamine] | 0.000175 | 9.83e-05 | 0.00127 | 5 to 7 | – | – | –
2 | CN1C[C@H](C(=O)N[C@]2(C)O[C@@]3(O)[C@@H]4CCCN4C(=O)[C@H](Cc4ccccc4)N3C2=O)C[C@@H]2c3cccc4[nH]cc(c34)C[C@H]21 [DHE, Dihydroergotamine] | – | – | – | – | ~16 | 6-7% | 20-30%
